According to patent US20100183629A1, “ANTAGONISTS OF ENDOTHELIAL DIFFERENTIATION GENE SUBFAMILY 3 (EDG-3, S1P3) RECEPTORS FOR PREVENTION AND TREATMENT OF OCULAR DISORDERS” (ALCON RESEARCH, LTD., priority 2006, published 2010):

Target: T1, Edg3 receptor (Homo sapiens, UniProt Q99500)
T1 construct: endogenous in cells; host or cells: cultured human trabecular meshwork (TM) cells
Experiment: PAI-1 levels (ELISA) in supernatants of treated human TM cell cultures, Edg3 receptor antagonism
Type: cell-based
Settings: human trabecular meshwork cell cultures, 24 hours
Description: FIG. 2A and FIG. 2B. Human trabecular meshwork cell cultures were treated with (open circles) or without (closed circles) the Edg3 receptor subtype antagonist CAY10444 in the presence of various amounts of the endogenous Edg receptor agonist S1P (FIG. 2A) or in the presence of various amounts of FTY720, a structural analog of SIP (FIG. 2B). Twenty-four hours later, the levels of the secreted PAI-1 protein were then determined by ELISA of supernatant aliquots from the treated cultures as cited in Example 2.
The effect of Edg3 receptor antagonism on expression of extracellular matrix-related proteins by cultured human trabecular meshwork cells is determined as follows. […] Levels of extracellular matrix-related proteins, such as fibronectin, plasminogen activator inhibitor I (PAI-1), collagens, fibrillin, vitronectin, laminin, thrombospondin I, proteoglycans, or integrins, are then measured in each cell culture group via standard enzyme-linked immunoabsorbent assays (ELISA). […]
An example of the effect of Edg3 receptor antagonism on PAI-1 levels in supernatants from treated human TM cell cultures is shown in FIG. 2A and FIG. 2B. […] Twenty-four hours later, the levels of the secreted PAI-1 protein were then determined by ELISA of supernatant aliquots from the treated cultures.

T1 sequence (Q99500 whole entry): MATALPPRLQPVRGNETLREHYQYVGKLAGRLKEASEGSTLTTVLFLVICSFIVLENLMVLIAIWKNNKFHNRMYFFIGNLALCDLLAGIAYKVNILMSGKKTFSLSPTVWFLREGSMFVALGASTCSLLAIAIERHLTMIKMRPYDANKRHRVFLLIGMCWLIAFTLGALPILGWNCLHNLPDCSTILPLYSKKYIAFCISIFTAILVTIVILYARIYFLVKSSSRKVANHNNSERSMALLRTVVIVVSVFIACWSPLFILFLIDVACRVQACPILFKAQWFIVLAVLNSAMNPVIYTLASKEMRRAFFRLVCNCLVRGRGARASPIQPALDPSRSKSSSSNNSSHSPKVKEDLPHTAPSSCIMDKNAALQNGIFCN

antagonism of FTY720 effect on secreted PAI-1 protein level (various amounts of FTY720, ELISA of supernatant (FIG. 2B)): potently and efficaciously antagonized | antagonism of S1P effect on secreted PAI-1 protein level (various amounts of S1P, ELISA of supernatant (FIG. 2A)): potently and efficaciously antagonized
Compound: CCCCCCCCCCCC1N[C@H](C(=O)O)CS1 (some centres unmarked) [CAY10444]
